Read-outs that look alike come from different tables or passages of the source.
Legend:
[1] = system: HepG2 cells; assay: Mitochondrial toxicity testing (mitDNA, rRNA, lactic acid); type: cell-based; settings: 14 days; for % Change in Lactic Acid: normalized for cytotoxicity
Experimental: HepG2 cells were incubated for 14 days with the active agent. and mitDNA and rRNA levels were determined by quantitative real-time PCR. The results are tabulated in […]

[2] = clinical; settings: in vivo
[3] = system: AZT/3TC-resistant HIV-1 recombinant viruses; assay: microbe, parasite or virus in culture; type: cell-based; settings: Human immunodeficiency virus 1, read-out: Average IC90 for AZT/3TC-R virus
Experimental: A panel of 22 viruses was constructed in the HXB2 background using the Protease and RT sequences from clinical isolates to determine Virco Profiling against recombinant clinical isolates (see FIGS. 7a and 7b). Viruses contained 2 to 17 mutations in RT frequently associated with nucleoside resistance, including: M184V, M41L, D67N, T215Y. IC50 values were determined using a high through-put reporter virus assay.

[4] = human, in vivo
[5] = clinical; settings: male, human, in vivo
Experimental: Total of 18 HIV-1 infected males, aged 18-55 years, enrolled, 6 per treatment cohort.
In Cohort 3, subjects received either 100 mg, or 200 mg, or placebo.
The data was analyzed using non-compartmental and two-compartmental models.
HIV RNA levels were also determined using quantitative real-time RT-PCR.
Plasma HIV-1 RNA levels were measured by quantitative reverse transcriptase-polymerase chain reaction (Q-RT-PCR) essentially as described by Stuyver, L. J. et al., “Antiviral activity and cellular toxicity of modified 2′,3′-dideoxy-2′,3′-didehydrocytidine analogues” Antimicrob Agents Chemother.

[6] = system: HIV viral load; settings: cited from earlier work
[7] = molecular target: T1, wild type HIV-RT (Human immunodeficiency virus type 1 group M subtype B, UniProt P04585); assay: Ki / Km for wild type HIV-RT; type: biochemical, HIV-1
T1 construct: The Ki value for β-D-D4FC-TP for wild type HIV-RT

[8] = system: acutely HIV-1 infected human PBM cells; assay: Median effect / combination index study with Racivir; type: cell-based; settings: Human immunodeficiency virus 1, PBMC, 120 h
[9] = molecular target: M184V mutant RT (Human immunodeficiency virus type 1 group M subtype B, UniProt P04585, M771V); assay: biochemical; type: biochemical, HIV-1
[10] = pbmc
[11] = molecular target: T2, DNA Pol γ (Homo sapiens, UniProt P54098); assay: Inhibition of pure DNA polymerase γ by nucleoside triphosphates; type: biochemical; settings: tritiated dCTP incorporation
T2 sequence (P54098 1-1239): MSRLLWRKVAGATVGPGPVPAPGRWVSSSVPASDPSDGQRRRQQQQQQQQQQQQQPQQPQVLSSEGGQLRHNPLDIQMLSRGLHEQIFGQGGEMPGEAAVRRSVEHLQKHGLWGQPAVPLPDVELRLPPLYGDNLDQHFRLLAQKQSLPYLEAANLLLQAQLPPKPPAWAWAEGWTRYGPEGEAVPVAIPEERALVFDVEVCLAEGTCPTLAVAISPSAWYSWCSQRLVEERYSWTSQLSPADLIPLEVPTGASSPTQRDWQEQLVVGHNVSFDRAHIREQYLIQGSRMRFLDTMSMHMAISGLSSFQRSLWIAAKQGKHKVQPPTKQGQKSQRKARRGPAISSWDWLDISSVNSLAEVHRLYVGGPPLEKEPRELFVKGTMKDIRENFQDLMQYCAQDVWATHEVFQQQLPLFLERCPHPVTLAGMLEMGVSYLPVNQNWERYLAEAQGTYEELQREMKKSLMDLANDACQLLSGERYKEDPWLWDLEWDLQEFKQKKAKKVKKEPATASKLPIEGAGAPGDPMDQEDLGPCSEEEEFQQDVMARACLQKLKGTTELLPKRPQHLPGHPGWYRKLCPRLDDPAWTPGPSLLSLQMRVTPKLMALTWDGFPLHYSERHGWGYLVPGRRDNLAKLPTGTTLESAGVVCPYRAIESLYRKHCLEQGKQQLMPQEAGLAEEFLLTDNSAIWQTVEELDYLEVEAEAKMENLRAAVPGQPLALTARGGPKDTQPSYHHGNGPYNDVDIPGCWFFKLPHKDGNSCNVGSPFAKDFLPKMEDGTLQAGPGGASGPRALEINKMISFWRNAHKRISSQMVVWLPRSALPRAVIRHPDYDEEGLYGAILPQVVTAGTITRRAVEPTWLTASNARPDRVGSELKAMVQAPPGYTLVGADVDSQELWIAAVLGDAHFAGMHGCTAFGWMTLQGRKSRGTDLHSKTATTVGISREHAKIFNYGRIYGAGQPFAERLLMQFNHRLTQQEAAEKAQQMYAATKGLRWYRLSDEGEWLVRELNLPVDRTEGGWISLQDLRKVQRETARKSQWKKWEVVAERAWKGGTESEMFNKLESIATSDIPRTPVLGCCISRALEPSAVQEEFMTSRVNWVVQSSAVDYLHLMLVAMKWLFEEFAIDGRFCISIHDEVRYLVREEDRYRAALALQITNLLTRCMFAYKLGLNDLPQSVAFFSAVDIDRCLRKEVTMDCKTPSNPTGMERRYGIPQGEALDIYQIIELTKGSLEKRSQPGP
Experimental: (§1) Triphosphates of nucleosides were tested against pure polymerases using tritiated dCTP incorporation.

[12] = molecular target: DNA Pol β (Homo sapiens, UniProt P06746); assay: Inhibition of pure DNA polymerase β by nucleoside triphosphates; type: biochemical; settings: tritiated dCTP incorporation
Experimental: as §1

Nc1ccn([C@@H]2CS[C@H](CO)O2)c(=O)n1 [3TC, β-L-2′,3′-dideoxy-3′-thiacytidine]
% Change in mitDNA ([1]; 1 μM): 0%
% Change in rRNA ([1]; 1 μM): −0.3%
% Change in Lactic Acid ([1]; 1 μM): +23%
% Change in mitDNA ([1]; 10 μM): −9%
% Change in rRNA ([1]; 10 μM): −0%
% Change in Lactic Acid ([1]; 10 μM): +5%
Cmax [2]: 6.6 µM
IC90 [3]: > 93 µM
Intracellular [Nuc-PPP] in patients [4]: 6 to 10 µM

Nc1nc(=O)[nH]cc1F [5FC, 5-fluorocytosine]
AUC ([5]; 10 mg): 0.39 ± 0.26 µM·h
AUC(0-τ) ([5]; 10 mg): 136 ± 14 ng·h/mL
AUC(0-∞) ([5]; 10 mg): 149 ng·h/mL
CLr ([5]; 10 mg): 1.39 L/h
CLtot/F ([5]; 10 mg): 67 957 mL/h
T ½ ([5]; 10 mg): 6.4 ± 4.2 h
Tmax ([5]; 10 mg): 1.0 ± 0.3 h
t1/2 λz ([5]; 10 mg): 2.41 h
tmax ([5]; 10 mg): 1.08 h
AUC ([5]; 25 mg): 1.52 ± 0.87 µM·h
AUC(0-τ) ([5]; 25 mg): 234 ng·h/mL
AUC(0-∞) ([5]; 25 mg): 250 ng·h/mL
CLr ([5]; 25 mg): 1.27 L/h
CLtot/F ([5]; 25 mg): 115 262 mL/h
T ½ ([5]; 25 mg): 9.5 ± 5.2 h
Tmax ([5]; 25 mg): 1.8 ± 0.9 h
t1/2 λz ([5]; 25 mg): 4.60 h
tmax ([5]; 25 mg): 1.33 h
AUC ([5]; 100 mg): 1.93 ± 0.68 µM·h
AUC(0-τ) ([5]; 100 mg): 309 ng·h/mL
AUC(0-∞) ([5]; 100 mg): 340 ng·h/mL
CLr ([5]; 100 mg): 10.26 L/h
CLtot/F ([5]; 100 mg): 307 932 mL/h
T ½ ([5]; 100 mg): 18.6 ± 10.1 h
Tmax ([5]; 100 mg): 3.7 ± 0.8 h
t1/2 λz ([5]; 100 mg): 8.50 h
tmax ([5]; 100 mg): 3.67 h
AUC ([5]; 200 mg): 14.43 ± 13.12 µM·h
AUC(0-τ) ([5]; 200 mg): 1,665 ng · h/mL
AUC(0-∞) ([5]; 200 mg): 1,887 ng · h/mL
CLr ([5]; 200 mg): 4.60 L/h
CLtot/F ([5]; 200 mg): 169 692 mL/h
T ½ ([5]; 200 mg): 11.2 ± 7.1 h
Tmax ([5]; 200 mg): 3.3 ± 3.2 h
t1/2 λz ([5]; 200 mg): 10.48 h
tmax ([5]; 200 mg): 3.33 h

Nc1nc(NC2CC2)c2ncn([C@H]3C=C[C@@H](CO)C3)c2n1 [ABC, (1S,4R)-4-[2-amino-6-cyclopropyl-amino)-9H-purin-9-yl]-2-cyclopentene-1-methanol succinate]
Viral Load Decline (log) ([6]; 600 mg BD, duration of dosing 7): −1.00 log

Cc1cn([C@H]2C[C@H](N=[N+]=[N-])[C@@H](CO)O2)c(=O)[nH]c1=O [AZT, 3′-deoxy-3′-azido-thymidine]
Viral Load Decline (log) ([6]; 300 mg BD, duration of dosing 14): −0.6 log

Cc1cn([C@H]2C=C[C@@H](CO)O2)c(=O)[nH]c1=O [D4T, 2′,3′-didehydro-2′,3′-dideoxythymidine]
Ki [7]: 50 to 300 nM
Cmax [2]: 2.7 µM
half-life [2]: 102 min
EC50 [8]: 50 nM
EC90 [8]: 350 nM
IC90 [3]: 6.8 µM
Ki [9]: 3 µM
Intracellular half life [10]: 3.5 h
Intracellular [Nuc-PPP] in patients [4]: 0.05 µM

Nc1nc(N)c2ncn([C@H]3CO[C@@H](CO)O3)c2n1 [DAPD, β-D-dioxolanyl-2,6-diaminopurine]
Viral Load Decline (log) ([6]; 300 mg BD, duration of dosing 14, add-on study in experienced patients): −1.5 log

Cc1cn([C@H]2C[C@H](F)[C@@H](CO)O2)c(=O)[nH]c1=O [FLT]
Viral Load Decline (log) ([6]; 7.5 mg QD, duration of dosing 28, add-on study in experienced patients): −1.88 log

Nc1nc(=O)n([C@@H]2CS[C@H](CO)O2)cc1F [FTC, β-L-2′,3′-dideoxy-3′-thia-5-fluorocytidine]
Viral Load Decline (log) ([6]; 200 mg QD, duration of dosing 12): −1.7 log

Nc1nc(=O)n([C@H]2C=C[C@@H](CO)O2)cc1F [L-D4FC]
% Change in mitDNA ([1]; 1 μM): −15%
% Change in rRNA ([1]; 1 μM): 0%
% Change in Lactic Acid ([1]; 1 μM): +25%
% Change in mitDNA ([1]; 10 μM): −74.2%
% Change in rRNA ([1]; 10 μM): −75.5%
% Change in Lactic Acid ([1]; 10 μM): +147%
Viral Load Decline (log) ([6]; 50 mg QD, duration of dosing 21, add-on study in experienced patients, mean of 7 of 18 patients): −1.69 log

Nc1ccn([C@H]2CO[C@@H](CO)S2)c(=O)n1 [SPD 754]
Viral Load Decline (log) ([6]; 1200 mg QD, duration of dosing 10): −1.62 log

C[C@H](Cn1cnc2c(N)ncnc21)OCP(=O)(O)O [TFV]
Viral Load Decline (log) ([6]; 300 mg QD, duration of dosing 28): −1.57 log

Nc1ccn([C@H]2C[C@H](O)[C@@H](COP(=O)(O)OP(=O)(O)OP(=O)(O)O)O2)c(=O)n1 [dC-TP]
Km ([7]; Km for dC-TP (substrate), read-out: Km WT): 7 µM
Km ([9]; Km for dC-TP (substrate)): 9 µM

Nc1ccn([C@H]2CC[C@@H](CO)O2)c(=O)n1 [ddC, 2′,3′-dideoxycytidine]
% Change in mitDNA ([1]; 1 μM): −99.7%
% Change in rRNA ([1]; 1 μM): −65.4%
% Change in Lactic Acid ([1]; 1 μM): +390%
% Change in mitDNA ([1]; 10 μM): −99.7%
% Change in rRNA ([1]; 10 μM): −73.6%
% Change in Lactic Acid ([1]; 10 μM): +492%

Nc1ccn([C@H]2CC[C@@H](COP(=O)(O)OP(=O)(O)OP(=O)(O)O)O2)c(=O)n1 [ddC-TP]
IC50 [11]: 70 nM
IC50 [12]: 250 nM
